Laboratory results reported in patent US9278941B2, “Azole derivative and uses thereof” (Kureha Corporation, priority 2011, dated 2016).
Where two headings read alike, the source gives them in different places.

What was measured:
wheat leaf rust = experiment: Rust control effect on wheat, foliar spray treatment; assay type: in vivo; conditions: wettable powder foliar spray 1,000 L/ha, twelve days after inoculation
[1] = system: Wheat leaf blight (Septoria tritici); experiment: Antifungal test against wheat leaf blight (PDA plate); conditions: 19 days at 25° C.
Protocol: Wheat leaf blight (Septoria tritici) cultured beforehand in a medium plate was punched out with a 4 mm-diameter cork borer, and inoculated in the plate media containing the agent. After inoculation, they were cultured for 19 days at 25° C., and the growth of the fungus was determined by the diameter of the growth. The growth rate of the fungus in the plate media containing the agent was compared to the growth rate of the fungus in the plate medium not containing the agent, and the filamentous fungi inhibition rate was determined using the following equation. In the equation, R is the filamentous fungi inhibition rate (%), dc is the diameter of the fungal growth in the untreated plate media, and dt is the diameter of the fungal growth in the treated plate media. R=100(dc−dt)/dc

wheat leaf blight = experiment: Leaf blotch control effect on wheat, foliar spray treatment; conditions: wettable powder foliar spray 1,000 L/ha, thirty days after inoculation
Protocol: After blow drying the sprayed leaves, the plants were sprinkled and inoculated with wheat leaf blight. Thirty days after inoculation, the morbidity of the wheat to powdery mildew was evaluated according to the criteria shown in Table 3, and the preventative value was calculated using the following equation. When the average morbidity of the sprayed plot was higher than the average morbidity of the unsprayed plot, the preventative value was 0%. Preventative value (%)=(1−(average morbidity of the sprayed plot/average morbidity of the unsprayed plot))×100.

wheat = experiment: Phytotoxicity evaluation of growth inhibition of wheat seeds, seed treatment; assay type: in vivo; conditions: fifteen days after seeding, untreated 21 cm
Protocol: A pot test was used to perform a phytotoxicity evaluation of growth inhibition using a seed treatment. Compound (1(−)) or Compound (1(+)) was dissolved in DMSO so the treatment amount was 2 or 20 g ai/100 kg seeds, and the solution was smeared on wheat seeds in a vial, and eight wheat seeds were seeded in a 80 cm^2 pot. These were irrigated from below in a greenhouse. Fifteen days after seeding, the length of the wheat was evaluated.

Microdochium nivale = experiment: Antifungal test for pathogens (PDA plate), M.n; assay type: cell-based; conditions: PDA plate medium
Rhizopus oryzae = experiment: Antifungal test for pathogens (PDA plate), R.o; assay type: cell-based; conditions: PDA plate medium
powdery mildew = experiment: Powdery mildew control effect on wheat, foliar spray treatment; assay type: in vivo; conditions: wettable powder foliar spray 1,000 L/ha, seven days after inoculation
Glomerella cingurata = experiment: Antifungal test for pathogens (PDA plate), G.c; assay type: cell-based; conditions: PDA plate medium
Gibberella fujikuroi = experiment: Antifungal test for pathogens (PDA plate), G.f; assay type: cell-based; conditions: PDA plate medium
Pyrenophora graminea = experiment: Antifungal test for pathogens (PDA plate), P.g; assay type: cell-based; conditions: PDA plate medium
Rhizoctonia solani = experiment: Antifungal test for pathogens (PDA plate), R.s; assay type: cell-based; conditions: PDA plate medium
Pyricularia oryzae = assay type: cell-based; conditions: PDA plate medium
Alternaria alternata = experiment: Antifungal test for pathogens (PDA plate), A.m; assay type: cell-based; conditions: PDA plate medium
wheat brown rust = experiment: Brown rust control effect on wheat, seed treatment; assay type: in vivo; conditions: sixteen days after inoculation
Protocol: A pot test was performed to evaluate the brown rust controlling effect on wheat using seed treatment. Compound (1(−)) or Compound (1(+)) was dissolved in DMSO so the treatment amount was 20 g ai/100 kg seeds or 2 g ai/100 kg seeds, and the solution was smeared on wheat seeds in a vial, and eight wheat seeds were seeded in a 80 cm^2 pot. These were irrigated from below in a greenhouse. Fifteen days after seeding, the seedlings were inoculated with wheat brown rust and then kept for two days in a box. These were again irrigated from below in a greenhouse.

Fusarium graminearum = assay type: cell-based; conditions: PDA plate medium
Ustilago nuda = experiment: Antifungal test for pathogens (PDA plate), U.n; assay type: cell-based; conditions: PDA plate medium
Botrytis cinerea [2] = experiment: Gray mold disease control effect on cucumbers, foliar spray treatment; assay type: in vivo; conditions: cucumber gray mold, wettable powder foliar spray 1,000 L/ha, four days after inoculation
Phaeosphaeria nodorum = experiment: Antifungal test for pathogens (PDA plate), P.n; assay type: cell-based; conditions: PDA plate medium
[3] = system: Pseudocercoporella herpotrichoides; experiment: Antifungal test for pathogens (PDA plate), P.h; assay type: cell-based; conditions: PDA plate medium
Botrytis cinerea [4] = experiment: Antifungal test for pathogens (PDA plate), B.c; assay type: cell-based; conditions: PDA plate medium
Rhynchosporium secalis = experiment: Antifungal test for pathogens (PDA plate), R.sec; assay type: cell-based; conditions: PDA plate medium
Fusarium oxysporum = experiment: Antifungal test for pathogens (PDA plate), F.c; assay type: cell-based; conditions: PDA plate medium
Gaeumannomyces graminis = experiment: Antifungal test for pathogens (PDA plate), G.g; assay type: cell-based; conditions: PDA plate medium
Sclerotinia sclerotiorum = experiment: Antifungal test for pathogens (PDA plate), S.s; assay type: cell-based; conditions: PDA plate medium
Cercospora beticola = experiment: Antifungal test for pathogens (PDA plate), C.b; assay type: cell-based; conditions: PDA plate medium
Penicillium italicum = experiment: Antifungal test for pathogens (PDA plate), P.i; assay type: cell-based; conditions: PDA plate medium

CC1(C)CCC(Cc2ccc(Cl)cc2)C1(O)Cn1cncn1 (centres unmarked) [Metconazole, reference compound]
Preventative Value (%) (wheat leaf rust; sample conc. 0.8 mg/L): 34.1% | Preventative Value (%) (wheat leaf rust; sample conc. 3.1 mg/L): 81.1% | Antifungal Index ([1]; sample conc. 0.31 mg/L): 1 (<60%) | Antifungal Index ([1]; sample conc. 0.63 mg/L): 2 (70%-60%) | Antifungal Index ([1]; sample conc. 1.25 mg/L): 4 (90%-80%) | Preventative Value (%) (wheat leaf blight; sample conc. 12.5 mg/L): 0% | Preventative Value (%) (wheat leaf blight; sample conc. 50 mg/L): 62.5%

COC(=O)[C@]1(C)CC[C@H](Cc2ccc(Cl)cc2)[C@@]1(O)Cn1cncn1 (relative stereo) [Compound (1(−)), (1,2-cis, 1,3-cis)-3-(4-chlorobenzyl)-2-hydroxy-1-methyl-2-(1H-1,2,4-triazole-1-ylmethyl)cyclopentanecarboxylic acid methyl ester]
Average Plant Length (cm) (wheat; wheat seed treatment 2 g ai/100 kg seeds): 11 cm | Average Plant Length (cm) (wheat; wheat seed treatment 20 g ai/100 kg seeds): 6 cm | Antifungal Index of Each Strain M.n (Microdochium nivale; Sample Conc. 1.25 mg/L): 3 (80%-70%) | Antifungal Index of Each Strain M.n (Microdochium nivale; Sample Conc. 2.5 mg/L): 5 (>90%) | Antifungal Index of Each Strain M.n (Microdochium nivale; Sample Conc. 5 mg/L): 5 (>90%) | Antifungal Index of Each Strain R.o (Rhizopus oryzae; Sample Conc. 1.25 mg/L): 5 (>90%) | Antifungal Index of Each Strain R.o (Rhizopus oryzae; Sample Conc. 2.5 mg/L): 5 (>90%) | Antifungal Index of Each Strain R.o (Rhizopus oryzae; Sample Conc. 5 mg/L): 5 (>90%) | Preventative Value (%) (wheat leaf rust; sample conc. 0.8 mg/L): 83.5% | Preventative Value (%) (wheat leaf rust; sample conc. 3.1 mg/L): 92.9% | Preventative Value (%) (powdery mildew; sample conc. 12.5 mg/L): 96% | Preventative Value (%) (powdery mildew; sample conc. 50.0 mg/L): 98% | Antifungal Index of Each Strain G.c (Glomerella cingurata; Sample Conc. 1.25 mg/L): 5 (>90%) | Antifungal Index of Each Strain G.c (Glomerella cingurata; Sample Conc. 2.5 mg/L): 5 (>90%) | Antifungal Index of Each Strain G.c (Glomerella cingurata; Sample Conc. 5 mg/L): 5 (>90%) | Antifungal Index of Each Strain G.f (Gibberella fujikuroi; Sample Conc. 1.25 mg/L): 5 (>90%) | Antifungal Index of Each Strain G.f (Gibberella fujikuroi; Sample Conc. 2.5 mg/L): 5 (>90%) | Antifungal Index of Each Strain G.f (Gibberella fujikuroi; Sample Conc. 5 mg/L): 5 (>90%) | Antifungal Index of Each Strain P.g (Pyrenophora graminea; Sample Conc. 0.08 mg/L): 2 (70%-60%) | Antifungal Index of Each Strain P.g (Pyrenophora graminea; Sample Conc. 0.16 mg/L): 3 (80%-70%) | Antifungal Index of Each Strain P.g (Pyrenophora graminea; Sample Conc. 0.31 mg/L): 4 (90%-80%) | Antifungal Index of Each Strain P.g (Pyrenophora graminea; Sample Conc. 0.63 mg/L): 5 (>90%) | Antifungal Index of Each Strain R.s (Rhizoctonia solani; Sample Conc. 1.25 mg/L): 5 (>90%) | Antifungal Index of Each Strain R.s (Rhizoctonia solani; Sample Conc. 2.5 mg/L): 5 (>90%) | Antifungal Index of Each Strain R.s (Rhizoctonia solani; Sample Conc. 5 mg/L): 5 (>90%) | Antifungal Index of Each Strain P.o (Pyricularia oryzae; Sample Conc. 1.25 mg/L): 4 (90%-80%) | Antifungal Index of Each Strain P.o (Pyricularia oryzae; Sample Conc. 2.5 mg/L): 5 (>90%) | Antifungal Index of Each Strain P.o (Pyricularia oryzae; Sample Conc. 5 mg/L): 5 (>90%) | Antifungal Index of Each Strain A.m (Alternaria alternata; Sample Conc. 1.25 mg/L): 3 (80%-70%) | Antifungal Index of Each Strain A.m (Alternaria alternata; Sample Conc. 2.5 mg/L): 4 (90%-80%) | Antifungal Index of Each Strain A.m (Alternaria alternata; Sample Conc. 5 mg/L): 5 (>90%) | Preventative Value (%) (wheat brown rust; seed treatment 2 g ai/100 kg seeds): 70% | Preventative Value (%) (wheat brown rust; seed treatment 20 g ai/100 kg seeds): 100% | Antifungal Index of Each Strain F.g (Fusarium graminearum; Sample Conc. 1.25 mg/L): 5 (>90%) | Antifungal Index of Each Strain F.g (Fusarium graminearum; Sample Conc. 2.5 mg/L): 5 (>90%) | Antifungal Index of Each Strain F.g (Fusarium graminearum; Sample Conc. 5 mg/L): 5 (>90%) | Antifungal Index of Each Strain U.n (Ustilago nuda; Sample Conc. 1.25 mg/L): 5 (>90%) | Antifungal Index of Each Strain U.n (Ustilago nuda; Sample Conc. 2.5 mg/L): 5 (>90%) | Antifungal Index of Each Strain U.n (Ustilago nuda; Sample Conc. 5 mg/L): 5 (>90%) | Preventative Value (%) (Botrytis cinerea [2]; sample conc. 12.5 mg/L): 64.7% | Preventative Value (%) (Botrytis cinerea [2]; sample conc. 50.0 mg/L): 100% | Antifungal Index of Each Strain P.n (Phaeosphaeria nodorum; Sample Conc. 1.25 mg/L): 5 (>90%) | Antifungal Index of Each Strain P.n (Phaeosphaeria nodorum; Sample Conc. 2.5 mg/L): 5 (>90%) | Antifungal Index of Each Strain P.n (Phaeosphaeria nodorum; Sample Conc. 5 mg/L): 5 (>90%) | Antifungal Index of Each Strain P.h ([3]; Sample Conc. 1.25 mg/L): 5 (>90%) | Antifungal Index of Each Strain P.h ([3]; Sample Conc. 2.5 mg/L): 5 (>90%) | Antifungal Index of Each Strain P.h ([3]; Sample Conc. 5 mg/L): 5 (>90%) | Antifungal Index ([1]; sample conc. 0.31 mg/L): 1 (<60%) | Antifungal Index ([1]; sample conc. 0.63 mg/L): 2 (70%-60%) | Antifungal Index ([1]; sample conc. 1.25 mg/L): 4 (90%-80%) | Antifungal Index of Each Strain B.c (Botrytis cinerea [4]; Sample Conc. 1.25 mg/L): 5 (>90%) | Antifungal Index of Each Strain B.c (Botrytis cinerea [4]; Sample Conc. 2.5 mg/L): 5 (>90%) | Antifungal Index of Each Strain B.c (Botrytis cinerea [4]; Sample Conc. 5 mg/L): 5 (>90%) | Antifungal Index of Each Strain R.sec (Rhynchosporium secalis; Sample Conc. 0.08 mg/L): 5 (>90%) | Antifungal Index of Each Strain R.sec (Rhynchosporium secalis; Sample Conc. 0.16 mg/L): 5 (>90%) | Antifungal Index of Each Strain R.sec (Rhynchosporium secalis; Sample Conc. 0.31 mg/L): 5 (>90%) | Antifungal Index of Each Strain R.sec (Rhynchosporium secalis; Sample Conc. 0.63 mg/L): 5 (>90%) | Antifungal Index of Each Strain F.c (Fusarium oxysporum; Sample Conc. 1.25 mg/L): 5 (>90%) | Antifungal Index of Each Strain F.c (Fusarium oxysporum; Sample Conc. 2.5 mg/L): 5 (>90%) | Antifungal Index of Each Strain F.c (Fusarium oxysporum; Sample Conc. 5 mg/L): 5 (>90%) | Preventative Value (%) (wheat leaf blight; sample conc. 12.5 mg/L): 37.5% | Preventative Value (%) (wheat leaf blight; sample conc. 50 mg/L): 65% | Antifungal Index of Each Strain G.g (Gaeumannomyces graminis; Sample Conc. 1.25 mg/L): 5 (>90%) | Antifungal Index of Each Strain G.g (Gaeumannomyces graminis; Sample Conc. 2.5 mg/L): 5 (>90%) | Antifungal Index of Each Strain G.g (Gaeumannomyces graminis; Sample Conc. 5 mg/L): 5 (>90%) | Antifungal Index of Each Strain S.s (Sclerotinia sclerotiorum; Sample Conc. 1.25 mg/L): 5 (>90%) | Antifungal Index of Each Strain S.s (Sclerotinia sclerotiorum; Sample Conc. 2.5 mg/L): 5 (>90%) | Antifungal Index of Each Strain S.s (Sclerotinia sclerotiorum; Sample Conc. 5 mg/L): 5 (>90%) | Antifungal Index of Each Strain C.b (Cercospora beticola; Sample Conc. 0.08 mg/L): 5 (>90%) | Antifungal Index of Each Strain C.b (Cercospora beticola; Sample Conc. 0.16 mg/L): 5 (>90%) | Antifungal Index of Each Strain C.b (Cercospora beticola; Sample Conc. 0.31 mg/L): 5 (>90%) | Antifungal Index of Each Strain C.b (Cercospora beticola; Sample Conc. 0.63 mg/L): 5 (>90%) | Antifungal Index of Each Strain P.i (Penicillium italicum; Sample Conc. 0.08 mg/L): 1 (<60%) | Antifungal Index of Each Strain P.i (Penicillium italicum; Sample Conc. 0.16 mg/L): 1 (<60%) | Antifungal Index of Each Strain P.i (Penicillium italicum; Sample Conc. 0.31 mg/L): 3 (80%-70%) | Antifungal Index of Each Strain P.i (Penicillium italicum; Sample Conc. 0.63 mg/L): 5 (>90%)
